Source: patent US6124498A, “Hydroxynaphthoic acids and derivatives” (University Of New Mexico, priority 1998, dated 2000)
“Also recorded” adds a separate entry of the source. Values belong to the compound of their own block, whether it stands above or below them.

Legend:
pLDH [1] = target: T1, pLDH (Plasmodium falciparum, UniProt Q27743); assay: biochemical; assay type: biochemical; settings: for mode of inhibition of pLDH with respect to cofactor (NADH): vs cofactor NADH; for selectivity for pLDH compared to LDH-H: pLDH vs LDH-H
T1 construct: made in house; host or cells: E. coli
T1 sequence (Q27743 whole entry): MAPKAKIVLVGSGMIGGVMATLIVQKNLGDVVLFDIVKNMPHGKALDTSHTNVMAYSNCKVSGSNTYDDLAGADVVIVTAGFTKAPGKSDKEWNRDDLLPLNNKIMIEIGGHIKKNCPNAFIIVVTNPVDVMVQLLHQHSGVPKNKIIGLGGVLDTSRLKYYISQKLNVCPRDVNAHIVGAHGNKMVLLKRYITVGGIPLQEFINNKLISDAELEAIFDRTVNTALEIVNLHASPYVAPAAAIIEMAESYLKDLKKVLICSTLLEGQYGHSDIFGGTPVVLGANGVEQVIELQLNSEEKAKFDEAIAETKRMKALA
Experimental: (§1) Human LDH-H4 and LDH-M4 were from Sigma.
(§2) LDH activity in the direction of NADH reduction of pyruvate to L-lactate was determined spectrophotometrically in pH 7.5 Tris buffer, 100 mM, containing 10 mM pyruvate and […], 25° C., 340 nm, ε=6.2 mM^-1 cm^-1. Michaelis constants were determined by nonlinear regression analysis of initial rate data using the Enzfitter program (Elsevier-Biosoft). Ki values were determined from double reciprocal plots by linear regression analysis.

human LDH-M (LDH-M4) = target: T2, human LDH-M (LDH-M4) (Homo sapiens, UniProt P00338); assay: Inhibition of human lactate dehydrogenase LDH-M (LDH-M4), NADH reduction of pyruvate; assay type: biochemical; settings: for mode of inhibition of LDH-M with respect to cofactor (NADH): vs cofactor NADH; for selectivity for LDH-M compared to LDH-H: LDH-M vs LDH-H; for change in inhibition / dissociation constant of LDH-M relative to 13: group at 7-position, compared to 13
T2 construct: purchased Sigma
Experimental: Recombinant pLDH was produced in E. coli, similar to the procedure described by Bzik et al. in "Expression of Plasmodium falciparum Lactate Dehydrogenase in Escherida coli." in Mol. Biochem. Parasitol., 1993, 59, 155-166 and was purified by Cibacron blue affinity chromatography and chromatofocusing as described previously. Human LDH-H4 and LDH-M4 were from Sigma.
as §2

alcohol dehydrogenase = assay: Inhibition of alcohol dehydrogenase; assay type: biochemical; settings: FIG. 14D
Experimental: (§3) Other studies with other dehydrogenases that contain the classic Rossman fold, in addition to LDH, were carried out to test that inhibition of dehydrogenases by substituted didhydroxynaphthoic acids is not limited to inhibition of LDH. A number of dehydrogenases were examined as shown in FIGS. 14A (2,3-dihydroxy-6-methyl-7-(o-methylbenzyl)-4-(1-methylethyl)-1-naphthoic acid (25e) inhibition D-lactate dehydrogenase), 14B (2,3-dihydroxy-6-methyl-7-(m-methylbenzyl)-4-(1-methylethyl)-1-naphthoic acid (25f) inhibition of malate dehydrogenase), 14C (compound 25b inhibition of glucose 6-phosphate dehydrogenase) and 14D (compound 21e inhibition of alcohol dehydrogenase).

human LDH-H (LDH-H4) = target: T3, human LDH-H (LDH-H4) (Homo sapiens, UniProt P07195); assay: Inhibition of human lactate dehydrogenase LDH-H (LDH-H4), NADH reduction of pyruvate; assay type: biochemical; settings: group at 7-position, compared to 13
T3 construct: purchased Sigma
T3 sequence (P07195 2-334 limits assumed): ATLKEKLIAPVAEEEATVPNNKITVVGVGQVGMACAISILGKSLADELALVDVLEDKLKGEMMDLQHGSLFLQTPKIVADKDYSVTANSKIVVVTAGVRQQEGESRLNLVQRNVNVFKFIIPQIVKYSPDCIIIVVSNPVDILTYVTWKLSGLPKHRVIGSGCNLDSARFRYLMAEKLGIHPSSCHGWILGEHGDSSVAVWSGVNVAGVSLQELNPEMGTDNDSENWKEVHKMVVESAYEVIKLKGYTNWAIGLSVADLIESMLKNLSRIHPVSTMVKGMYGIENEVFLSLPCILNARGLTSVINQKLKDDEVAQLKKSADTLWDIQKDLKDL
Experimental: as §1, §2

[2] = system: glucose 6-phosphate dehydrogenase; assay: Inhibition of glucose 6-phosphate dehydrogenase; assay type: biochemical; settings: FIG. 14C
Experimental: as §3

pLDH [3] = target: T1, pLDH; assay: Quenching of intrinsic protein fluorescence of pLDH in presence and absence of ADP; assay type: binding; settings: presence vs absence of ADP
From the text: (§4) To test the Pan-Active Site inhibitor model for the compounds of the present invention, the binding of dihydroxynaphthoic acids to pLDH and human LDH was examined using fluorescence techniques. The effects of ADP on the binding of inhibitors was compared with the effects of ADP on the binding of NADH to determine which part of the cofactor binding site was the target of the inhibitors. Representative results are shown in FIGS. 13A and 13B for the binding of compound 25c to pLDH. […] In FIG. 13B is shown the quenching of pLDH fluorescence by compound 25c in the presence and absence of ADP.

LDH-M4 = assay: Quenching of intrinsic protein fluorescence of LDH-M4 in presence and absence of ADP; assay type: binding, human; settings: presence vs absence of ADP
From the text: as §4

D-lactate dehydrogenase = assay: Inhibition of D-lactate dehydrogenase; assay type: biochemical; settings: FIG. 14A
Experimental: as §3

malate dehydrogenase = assay: Inhibition of malate dehydrogenase; assay type: biochemical; settings: FIG. 14B
Experimental: as §3

[4] = system: IMP dehydrogenase type 11; settings: dominant isoenzyme in neoplastic cells; cited from earlier work

dissociation constant for inhibition of pLDH (pLDH [1]; in words): low μmolar range
mode of inhibition of pLDH with respect to cofactor (NADH) (pLDH [1]): competitive with the binding of NADH
mode of inhibition of LDH-M with respect to cofactor (NADH) (human LDH-M (LDH-M4)): competitive with the binding of NADH
Structure (SMILES): Cc1ccc2c(C(=O)O)c(O)c(O)c(C(C)C)c2c1 [Compound 13, 8-deoxyhemigossylic acid, reference compound]

Structure (SMILES): Cc1ccc2c(C(=O)O)c(O)c(O)c(C)c2c1 [Compound 21a, 2,3-Dihydroxy-4,6-dimethyl-1-naphthoic acid]
selectivity for pLDH compared to LDH-H (pLDH [1]): selectivity for pLDH and LDH-M compared to LDH-H
selectivity for LDH-M compared to LDH-H (human LDH-M (LDH-M4)): selectivity for pLDH and LDH-M compared to LDH-H

Structure (SMILES): Cc1cc2c(C)c(O)c(O)c(C(=O)O)c2cc1C [Compound 21b, 2,3-Dihydroxy-4,6,7-trimethyl-1-naphthoic acid]
selectivity for pLDH compared to LDH-H (pLDH [1]): selectivity for pLDH and LDH-M compared to LDH-H
selectivity for LDH-M compared to LDH-H (human LDH-M (LDH-M4)): selectivity for pLDH and LDH-M compared to LDH-H

Structure (SMILES): Cc1cc2c(C)c(O)c(O)c(C(=O)O)c2cc1Cc1ccccc1 [Compound 21c, 7-Benzyl-2,3-dihydroxy-4,6-dimethyl-1-naphthoic acid]
selectivity for pLDH compared to LDH-H (pLDH [1]): selectivity for pLDH and LDH-M compared to LDH-H
selectivity for LDH-M compared to LDH-H (human LDH-M (LDH-M4)): selectivity for pLDH and LDH-M compared to LDH-H

Structure (SMILES): CCCc1c(O)c(O)c(C(=O)O)c2cc(C)c(C)cc12 [Compound 21e, 2,3-Dihydroxy-6,7-dimethyl-4-n-propyl-1-naphthoic acid]
selectivity for LDH-M compared to LDH-H (human LDH-M (LDH-M4)): 190 fold
inhibition of alcohol dehydrogenase (alcohol dehydrogenase): inhibition

Structure (SMILES): Cc1cc2c(C(=O)O)c(O)c(O)c(C(C)C)c2cc1C [Compound 25a, 2,3-Dihydroxy-6,7-dimethyl-4-(1-methylethyl)-1-naphthoic acid]
change in inhibition / dissociation constant of pLDH relative to 13 (pLDH [1]; group at 7-position, compared to 13): little change in the dissociation constants
change in inhibition / dissociation constant of LDH-M relative to 13 (human LDH-M (LDH-M4)): little change in the dissociation constants

Structure (SMILES): Cc1cc2c(C(C)C)c(O)c(O)c(C(=O)O)c2cc1Cc1ccccc1 [Compound 25b, 7-Benzyl-2,3-dihydroxy-6-methyl-4-(1-methylethyl)-1-naphthoic acid]
change in inhibition / dissociation constant of LDH-M relative to 13 (human LDH-M (LDH-M4)): markedly stronger inhibition
change in inhibition / dissociation constant of LDH-H relative to 13 (human LDH-H (LDH-H4)): markedly stronger inhibition
inhibition of glucose 6-phosphate dehydrogenase [2]: inhibition

Structure (SMILES): Cc1cc2c(C(C)C)c(O)c(O)c(C(=O)O)c2cc1Cc1ccc(C(F)(F)F)cc1 [Compound 25c, 7-p-Trifluoromethylbenzyl-2,3-dihydroxy-6-methyl-4-(1-methylethyl)-1-naphthoic acid]
Ki (pLDH [1]; pH 7.5 Tris, 25° C., read-out: Ki for inhibition of pLDH): 200 nM
selectivity for pLDH over LDH-H (pLDH [1]; pLDH over LDH-H): 400 fold
selectivity for pLDH over LDH-M (pLDH [1]; pLDH over LDH-M): 75 fold
mode of inhibition of pLDH with respect to cofactor (NADH) (pLDH [1]): competitive against both cofactor and substrate
selectivity for pLDH compared to either human LDH (pLDH [1]; vs human LDH-M and LDH-H): highly selective in favor of pLDH
mode of inhibition of pLDH with respect to substrate (pLDH [1]; vs substrate (pyruvate)): competitive against both cofactor and substrate; also recorded: appears competitive
competition with the ADP part of the NADH binding site of pLDH (pLDH [3]): not competing with the ADP part of the NADH binding site
effect of ADP on binding to pLDH (fluorescence quenching) (pLDH [3]): enhances the binding of inhibitor
effect of ADP on binding to LDH-M4 (fluorescence quenching) (LDH-M4): The same results were obtained with LDH-M4

Kd (human LDH-M (LDH-M4); pH 7.5 Tris, 25° C.): 30 nM
Structure (SMILES): Cc1ccc(Cc2cc3c(C(=O)O)c(O)c(O)c(C(C)C)c3cc2C)cc1 [Compound 25d, 2,3-dihydroxy-6-methyl-7-(p-methylbenzyl)-4-(1-methylethyl)-1-naphthoic acid]
mode of inhibition of LDH-M with respect to cofactor (NADH) (human LDH-M (LDH-M4)): competitive against both cofactor and substrate
mode of inhibition of LDH-M4 with respect to substrate (human LDH-M (LDH-M4); vs substrate (pyruvate), FIGS. 12A and 12B): competitive against both cofactor and substrate

Structure (SMILES): Cc1ccccc1Cc1cc2c(C(=O)O)c(O)c(O)c(C(C)C)c2cc1C [Compound 25e, 2,3-dihydroxy-6-methyl-7-(o-methylbenzyl)-4-(1-methylethyl)-1-naphthoic acid]
inhibition of D-lactate dehydrogenase (D-lactate dehydrogenase): inhibition

Structure (SMILES): Cc1cccc(Cc2cc3c(C(=O)O)c(O)c(O)c(C(C)C)c3cc2C)c1 [Compound 25f, 2,3-dihydroxy-6-methyl-7-(m-methylbenzyl)-4-(1-methylethyl)-1-naphthoic acid]
inhibition of malate dehydrogenase (malate dehydrogenase): inhibition

Structure (SMILES): NC(=O)C1=CN([C@@H]2O[C@H](COP(=O)(O)OP(=O)(O)OC[C@H]3O[C@@H](n4cnc5c(N)ncnc54)[C@H](O)[C@@H]3O)[C@@H](O)[C@H]2O)C=CC1 [NADH, reference compound]
effect of ADP on binding to pLDH (fluorescence quenching) (pLDH [3]): the presence of ADP competes with the binding of NADH

Structure (SMILES): NC(=O)c1csc([C@@H]2O[C@H](COP(=O)(O)OP(=O)(O)OC[C@H]3O[C@@H](n4cnc5c(N)ncnc54)[C@H](O)[C@@H]3O)[C@@H](O)[C@H]2O)n1 [thiazole-4-carboxamide adenine dinucleotide]
inhibition of IMP dehydrogenase type 11 [4]: potent inhibitor
